# Laboratory results: patent US20120108641A1, “ANTITUMOR COMBINATION INCLUDING AVE8062 AND SORAFENIB” (SANOFI, priority 2009, published 2012)
# Values joined by “and” are separate entries in the source; they are usually repeats but may differ in a detail not shown here. Equal entries are not always repeated. Where two headings read alike, the source gives them in different places.
# Columns and labels:
# [1] = test system: NCI-H460 human non-small cell lung tumour; assay: Study 2: sorafenib administered 1 h after AVE8062, antitumour activity; type: in vivo, female SCID mice
# Description: (§1) A product is considered to be active if the log10 cell kill is greater than or equal to 0.7.
# (§2) In the case of an early tumour treatment, the implanted animals are distributed randomly in various groups which are, or are not (controls), intended to receive the treatment(s). […] The animals are observed and weighed every day. A dose which induces a weight loss of 20% or more at the lowest point (average of the group) or a mortality of 10% or more is considered to be toxic. The tumour activity is evaluated at the highest non-toxic dose, or at the highest dose tested, within the context of a non-cytotoxic agent.
# (§3) The tumours are measured 2 or 3 times a week until the tumour reaches approximately 2 g or until the animal dies, if this occurs before the tumour reaches 2 g. The animals are autopsied when they are sacrificed.
# (§4) The antitumor activity is determined in accordance with various recorded parameters, such as the dose (mg/kg), the method of administration, the administration time, the toxicity and the log10 cell kill, which depends on the tumour growth delay and also on the tumour doubling time.
# (§5) Within the context of the following studies, the AVE8062, in hydrochloride form, is formulated in water with 0.9% NaCl.
# Study 2: Sorafenib Administered 1 h after AVE8062 in the Combination (Table II)
# (§6) The AVE8062 was administered intravenously on days 10 and 14 post tumour implantation. The sorafenib was administered orally from day 10 to day 14. The two agents were administered in combination, according to the same schedules as those used for the agents alone, but the administration of sorafenib having been staggered one hour after the administration of the AVE8062.
# [2] = test system: NCI-H460 human non-small cell lung tumour; assay: Study 3: sorafenib administered 24 h after AVE8062, antitumour activity; type: in vivo, female SCID mice
# Description: as §1
# (§7) The activity in this case is acknowledged for a net log cell kill that is positive (>0). A cytostatic activity corresponds to a net log cell kill of 0, that is to say that the treatment time is equal to the duration of the antitumour effect.
# as §2, §3, §4, §5
# Study 3: Sorafenib Administered 24 h after AVE8062 in the Combination (Table III)
# The AVE8062 was administered intravenously on days 9 and 14 post implantation of the NCI-H460 pulmonary tumour in female SCID mice. The sorafenib was administered orally from day 9 to day 20. When the 2 agents were administered in combination, the same schedules were used as for the agents alone, but the administrations of sorafenib were started 24 hours after that of AVE8062.
# [3] = Procedure: as §2, §5, §6
# [4] = test system: NCI-H460 human non-small cell lung tumour; assay: Study 1: sorafenib administered simultaneously with AVE8062, antitumour activity; type: in vivo, female SCID mice; conditions: AVE8062 22.3 mg/kg per injection i.v. days 9, 13
# Description: as §1, §7, §2, §3, §4, §5
# Study 1: Sorafenib Administered Simultaneously with AVE8062 (Table I)
# The AVE8062 was administered intravenously on days 9 and 13 post tumour implantation. The sorafenib was administered orally from day 9 to day 24. When the two agents were administered in combination, the same schedules were used as for the agents alone, the combination of the two agents having been carried out simultaneously on days 9 and 13.
# [5] = Study 3: toxicity, highest non-toxic dose; type: in vivo, female SCID mice; conditions: Study 3, AVE8062 alone i.v. days 9, 14
# Procedure: The animals are observed and weighed every day.
# The AVE8062 was administered intravenously on days 9 and 14 post implantation of the NCI-H460 pulmonary tumour in female SCID mice.
# [6] = sorafenib 100.0 mg/kg/admin p.o. days 10-14
# [7] = sorafenib 100.0 mg/kg per injection p.o. days 9-20
# [8] = AVE8062 22.3 mg/kg/admin i.v. days 10, 14
# [9] = AVE8062 22.3 mg/kg per injection i.v. days 9, 14
compound,measurement,setting,value
"CNC(=O)c1cc(Oc2ccc(NC(=O)Nc3ccc(Cl)c(C(F)(F)F)c3)cc2)ccn1 [Sorafenib, 4-[4-[[4-chloro-3-(trifluoromethyl)phenyl]carbamoylamino]phenoxy]-N-methylpyridine-2-carboxamide]",Observations,[1]; [6],HDT - Active
same,Regressions complete,[1]; [6],0/6
same,Regressions partial,[1]; [6],0/6
same,T − C,[1]; [6],6.1 days
same,log cell kill,[1]; [6],1.1
same,CR,[2]; [7],0/6
same,Observations,[2]; [7],HDT - no cytostasis
same,PR,[2]; [7],0/6
same,gross log cell kill,[2]; [7],2.4
same,net log cell kill,[2]; [7],−0.4
same,Mortality (day of death),[3]; [6],0/6
"COc1ccc(/C=C\c2cc(OC)c(OC)c(OC)c2)cc1NC(=O)[C@@H](N)CO [AVE8062, (Z)—N-[2-methoxy-5-[2-(3,4,5-trimethoxyphenyl)vinyl]phenyl]-L-serinamide]",CR,[4],0/6
same,Observations,[4],Inactive
same,PR,[4],0/6
same,log cell kill,[4],0.6
same,net log cell kill,[4],−0.1
same,Observations,[1]; [8],HNTD - active
same,Regressions complete,[1]; [8],0/5
same,T − C,[1]; [8],5.8 days
same,log cell kill,[1]; [8],1.1
same,Regressions partial,"[1]; AVE8062 22.3 mg/kg/admin i.v. days 10, 14, 22.3 mg/kg",without inducing tumour regression and 0/5
same,CR,[2]; [9],0/6
same,Observations,[2]; [9],Active
same,PR,[2]; [9],0/6
same,gross log cell kill,[2]; [9],1.7
same,net log cell kill,[2]; [9],0.3
same,Mortality (day of death),[3]; [8],0/5
same,% BWC (day of lowest point),"[3]; AVE8062 22.3 mg/kg/admin i.v. days 10, 14, lowest point day 21",−3.2 (21) %
same,highest non-toxic dose (HNTD),"[3]; Study 2, AVE8062 alone i.v. days 10, 14",22.3 mg/kg per injection
same,highest non-toxic dose (HNTD),[5],36 mg/kg per injection
